Several values for one entry are separate records, joined by “and”; a condition that tells them apart may be missing. Identical values can stand only once.
Columns and labels:
[1] = tested on: Jurkat T-cells on inflamed rat brain vascular endothelium; assay: Binding to inflamed brain endothelium sections; type: cell-based, human; conditions: 250 μg/ml lectin
mice immunized with AChR = assay: EAMG: muscle acetylcholine receptor content and Ig-complexed AChR; type: in vivo, mouse; conditions: for % of AChR Complexed with Ig / Carcass AChR Content: 10 days after injection
Description: After the observation period, the animals were sacrificed, skinned, and eviscerated; and a cholinergic receptor (AChR) extract was prepared as described by Lefvert, A. K. et al., Scand. J. Immunol. supra for determination of total AChR content and Ig-complexed AChR content, as described therein.
Briefly, to determine total AChR content, known portions of the AChR extracts were incubated with a ten-fold excess of ^125I-alpha-bungarotoxin for 1 hour at 37° C. so as to label the receptor for quantitation. The mixture was subjected to gel filtration on Sephacryl G200 to separate free and bound toxin. To determine the amount of AChR complexed to IgG or IgM antibodies, the extract was incubated with a ten-fold excess of labeled bungarotoxin overnight at 4° C.; anti-mouse IgG or IgM was then added and the samples incubated overnight at 4° C., followed by separation of the precipitates, washing and counting.

BALB/c mice = assay: B-cell repertoire: hybridoma clones producing antibodies against the immunizing antigen; type: in vivo, mouse; conditions: for Number of Clones Producing Antibodies: 180 primary clones; for Experimental % of Control: clones with lectin vs antigen only
Description: The effect of the recombinant lectin on B-cell activation in BALB/c mice was also assayed using standard assays determining the number of hybridomas secreting antibodies to the administered antigen.
Three BALB/c female mice (7-8 weeks old) were injected intraperitoneally with 5 μg of […], tetanus toxoid or pneumococcal polysaccharide, respectively, in complete Freund's adjuvant. Two weeks later, the mice were injected intravenously with the same amount of antigen in 0.15 M sodium phosphate buffer, pH 7.4. […]. A mixture of capsular polysaccharide extracts from 23 different serotypes of Streptococcus pneumoniae (Pneumovax®) was obtained from Merck Sharp & Dohme, Inc. (West Point, Pa.). Three other mice of the same strain were similarly immunized with these antigens in combination with 15 μg of the recombinant lectin; controls received only the antigens.
The animals were sacrificed 4 days after the booster injection and spleen cells (10^8 cells) were fused with the nonsecreting B-lymphocytoma cell line SP2-OAg14 (2×10^7 cells). The cell mixture was distributed in 6×96 Costar tray wells (2×10^5 cells/well) with a feeder layer of mouse peritoneal macrophages (5×10^5 cells/well). From the third day in culture HAT (hypoxanthine-aminopterin-thymidine) medium was added. After 10-14 days, supernatants were assayed for binding to the respective antigens used for immunization using an enzyme-linked immunosorbent assay (ELISA).

Lewis rat = assay: Experimental autoimmune encephalomyelitis (EAE) induced with GPBP/CFA; type: in vivo
Text: Experimental autoimmune encephalomyelitis (EAE) is a T-cell-mediated disease considered to be a useful model for human paralytic and demyelinating diseases such as multiple sclerosis (Vandenbark, A. et al., J. Immunol. (1985) 135:223). In the Lewis rat, paralytic signs of EAE are induced about 14 days after injecting guinea pig myelin basic protein (GPBP) in Complete Freund's Adjuvant (CFA). It has been shown by Offner, H. et al. (J. Immunol. (1988) 141:3288) that T-cells specific for GPBP in immunized rats recognize amino acid residues 72-89 of GPBP and have the ability to transfer both clinical signs of EAE and delayed-type hypersensitivity reaction to GPBP to other animals.
In the studies reported in this example, EAE was induced by injection of GPBP/CFA as described above.
In one protocol intravenous administration of lectin was started at day 0 relative to 50 μg GPBP/CFA injection, with additional lectin treatment at days 3 and 6. The severity of the disease was determined clinically and histologically:
“Clinical” Ratings are as Follows:
3=Hind quarter paralysis.
“Histologic” Ratings are as Follows:
Slides were examined for degree of inflammation with ratings as follows:
0.5=a few infiltrating cells in the meninges;
1=meningeal infiltration, more organized and concentrated around blood vessels;
2-4=increasing intensity of meningeal infiltration and perivascular cuffing in the CNS parenchyma.
In a second protocol, lectin was first administered three days before immunization with 50 μg GPBP/CFA and was followed by daily injections until day 7 after immunization.
In an additional experiment, animals were given various doses of lectin on days 0-12, following the administration of 10 μg GPBP injected intramuscularly.

lymph node cells [2] = assay: Response of lymph node cells to the lectin (mitogenicity); type: cell-based, rat; conditions: data not shown
Lewis rats = assay: Rat heart transplantation, lectin combined with cyclosporin; type: in vivo; conditions: Group A: Cyclosporin 0, Lectin 2.5 mg/kg/day
Text: The heart transplant model of paragraph A was used. Five groups of 5 Lewis rats received hearts from Brown Norway rats and were given the following drugs by group, as shown in Table 8:
Cyclosporin i.p. was started the day of the graft and continued daily. Recombinant lectin was started two days prior to transplant and continued daily.

rats = assay: Skin allograft, single grafts (FIG. 14); type: in vivo, rat; conditions: 5 mg/kg recombinant lectin
Description: In this experiment, 5 mg/kg recombinant lectin was used on rats bearing single grafts and the day of graft rejection was noted.

lymph node cells [3] = assay: In vivo effect of lectin on phenotypes of lymphocytes (antibody staining); set-up: species or system rat; conditions: for % positive / F^L / % CHANGE IN POSITIVES: Lymph Node Cells
[4] = 250 μg lectin Days −3 to 6 daily
[5] = 250 μg lectin Days −3 to 6 daily, background subtracted
[6] = 250 μg lectin Days −3 to 6 daily, scale 0-4
[7] = antibody IgG, lectin-treated rats

## Lectin: Soluble 14 kD β-galactoside-binding HL-60/placenta lectin of FIG. 1 (SEQ ID NO:2), prepared recombinantly in E. coli
[1]
  Binding to Inflamed Brain Endothelium: did not bind
Mice immunized with AChR; AChR + lectin 0.1 μg
  % of AChR Complexed with Ig: 48 ± 6.0%
  Carcass AChR Content: 0.8 ± 0.4 mol × 10^−11
Mice immunized with AChR; AChR + lectin 1 μg
  % of AChR Complexed with Ig: 52 ± 2.0%
  Carcass AChR Content: 1.4 ± 0.3 mol × 10^−11
Mice immunized with AChR; AChR + lectin 5 μg
  % of AChR Complexed with Ig: 44 ± 5.0%
  Carcass AChR Content: 0.9 ± 0.5 mol × 10^−11
Mice immunized with AChR; AChR + lectin 15 μg
  % of AChR Complexed with Ig: 11 ± 10.7%
  Carcass AChR Content: 3.5 ± 0.4 mol × 10^−11
Mice immunized with AChR; AChR + lectin 25 μg
  % of AChR Complexed with Ig: 11 ± 7.8%
  Carcass AChR Content: 3.2 ± 0.6 mol × 10^−11
Mice immunized with AChR; single subcutaneous doses of about 7.5-12 μg
  AChR loss and amount of Ig-complexed AChR: lowered
BALB/c mice; Pneumococcal polysaccharide + 15 μg lectin
  Number of Clones Producing Antibodies: 111
BALB/c mice; Pneumococcal polysaccharide
  Experimental % of Control: 78%
BALB/c mice; Tetanus toxoid + 15 μg lectin
  Number of Clones Producing Antibodies: 79
BALB/c mice; Tetanus toxoid
  Experimental % of Control: 48%
BALB/c mice; Torpedo receptor + 15 μg lectin
  Number of Clones Producing Antibodies: 54
BALB/c mice; Torpedo receptor
  Experimental % of Control: 41%
Lewis rat; 250 μg lectin Days 0, 3, 6
  Duration: 3.0 days and 3 days
  Loss of Weight: 20 g
Lewis rat; 250 μg lectin Days 0, 3, 6, scale 0-4
  Severity of Disease, Histological Rating: 3.5
Lewis rat; [4]
  Duration (days): 0^3 days
  Loss of Weight (g): None^3
Lewis rat; [5]
  GPBP DTH (delayed type hypersensitivity reaction, swelling): 9 mm/100
  PPD DTH (delayed type hypersensitivity reaction, swelling): 4 mm/100
Lewis rat; [6]
  Clinical Severity of Disease: 0^3/
  Histologic Severity of Disease: 0.50^3
Lewis rat; 250 μg lectin i.v. Days 0, 3, 6, 50 μg GPBP/CFA
  Day of Onset: 17 days
Lewis rat; 10-1500 μg intraperitoneally days 0-12, 10 μg GPBP, FIGS. 10 and 11
  daily dosage optimal for ameliorating the symptoms: 500 µg
Lewis rat; lectin from three days before immunization, daily until day 7
  development of the disease (EAE): prevented completely
Lymph node cells [2]
  mitogenicity for lymph node cells: not mitogenic
Lewis rats
  Survivors on Day 16: 0/5
rats
  rejection of the skin allograft: considerably delayed
Lymph node cells [3]; antibody 0X6
  % positive: 10.0%
  F^L: 1208
Lymph node cells [3]; antibody 0X6, lectin vs control
  % CHANGE IN POSITIVES: 0%
Lymph node cells [3]; antibody 0X8
  % positive: 30.3%
Lymph node cells [3]; antibody 0X8 (suppressor T-cells)
  F^L: 472
Lymph node cells [3]; antibody 0X8, lectin vs control
  % CHANGE IN POSITIVES: +28%
Lymph node cells [3]; antibody 0X12
  % positive: 9.9%
  F^L: 316
Lymph node cells [3]; antibody 0X12, lectin vs control
  % CHANGE IN POSITIVES: 0%
Lymph node cells [3]; [7]
  % positive: 16.4%
  F^L: 129
Lymph node cells [3]; antibody W3/13
  % positive: 99.5%
Lymph node cells [3]; antibody W3/13 (total T-cells)
  F^L: 442
Lymph node cells [3]; antibody W3/13, lectin vs control
  % CHANGE IN POSITIVES: 0%
Lymph node cells [3]; antibody W3/25
  % positive: 76.5%
Lymph node cells [3]; antibody W3/25 (helper T-cells)
  F^L: 230
Lymph node cells [3]; antibody W3/25, lectin vs control
  % CHANGE IN POSITIVES: −0%
Lymph node cells [3]; lectin-treated animals
  increase in the number of rat lymph node suppressor T-cells (0X8 reactive): 28%

Source: patent US6406679B1, “Use of HL-60-related lectins in drug delivery and detection of lectin-expressing cells” (Incyte Pharmaceuticals, Inc., priority 1992, dated 2002)
